≈ marks a conversion by molar mass, not a printed value. Where two headings read alike, the source gives them in different places.
Legend:
[1] = target: T1, E. coli DnaE (DNA polymerase III α-subunit from Escherichia coli) (Escherichia coli, UniProt P10443); experiment: In vitro DnaE single enzyme assay (E. coli); assay type: biochemical
T1 construct: EcDnaE (E. coli DnaE residues 1-1160); 6xHis (N); made in house; host or cells: E. coli BL21(DE3)
In short: (§1)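 His-tagged E. coli DnaE (residues 1-1160, 0.8 μg/ml) or S. aureus DnaE (residues 1-1065, 0.05 μg/ml) incubated 30 min at 30° C. with activated calf thymus DNA, 0.025 mM dATP/dGTP/dCTP and 0.011 mM 3H-dTTP in Tris pH 7.5/Mg acetate. TCA-precipitated labelled DNA counted.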

[2] = target: T2, S. aureus DnaE (DNA polymerase III α-subunit homolog from Staphylococcus aureus) (Staphylococcus aureus, UniProt Q5HF71); experiment: biochemical; assay type: biochemical
T2 construct: SaDnaE (S. aureus DnaE residues 1-1065); 6xHis (N); made in house; host or cells: E. coli BL21-AI
T2 sequence (Q5HF71 1-1065): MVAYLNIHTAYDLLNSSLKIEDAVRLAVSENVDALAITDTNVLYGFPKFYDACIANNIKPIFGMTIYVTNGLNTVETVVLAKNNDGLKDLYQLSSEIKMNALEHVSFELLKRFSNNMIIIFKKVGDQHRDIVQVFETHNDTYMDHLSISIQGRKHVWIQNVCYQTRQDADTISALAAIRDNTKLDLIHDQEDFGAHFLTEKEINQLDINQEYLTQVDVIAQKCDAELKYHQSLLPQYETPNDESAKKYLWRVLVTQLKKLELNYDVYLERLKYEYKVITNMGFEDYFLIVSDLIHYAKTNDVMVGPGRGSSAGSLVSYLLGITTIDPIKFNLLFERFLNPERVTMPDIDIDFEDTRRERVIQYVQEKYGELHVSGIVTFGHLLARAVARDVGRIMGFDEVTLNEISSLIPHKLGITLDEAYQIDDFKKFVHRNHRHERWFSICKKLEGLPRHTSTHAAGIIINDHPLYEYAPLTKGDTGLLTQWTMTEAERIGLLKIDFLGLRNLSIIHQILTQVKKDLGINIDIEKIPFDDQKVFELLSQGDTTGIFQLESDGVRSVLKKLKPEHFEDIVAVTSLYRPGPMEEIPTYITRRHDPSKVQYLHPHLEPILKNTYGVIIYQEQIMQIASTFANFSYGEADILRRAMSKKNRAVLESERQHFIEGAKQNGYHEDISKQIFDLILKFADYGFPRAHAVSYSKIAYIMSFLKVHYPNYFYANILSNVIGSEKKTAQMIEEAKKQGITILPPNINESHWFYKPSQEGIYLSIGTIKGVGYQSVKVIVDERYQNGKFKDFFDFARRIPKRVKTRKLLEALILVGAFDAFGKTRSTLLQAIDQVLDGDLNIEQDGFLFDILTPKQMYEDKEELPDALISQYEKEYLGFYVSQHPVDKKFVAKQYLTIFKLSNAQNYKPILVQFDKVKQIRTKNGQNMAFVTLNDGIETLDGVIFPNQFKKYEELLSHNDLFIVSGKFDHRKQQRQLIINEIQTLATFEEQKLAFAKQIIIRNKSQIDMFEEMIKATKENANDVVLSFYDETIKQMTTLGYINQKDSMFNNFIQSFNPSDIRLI
In short: as §1

[3] = system: Escherichia coli MB5747 (LS 883, tolC); experiment: microbe, parasite or virus in culture; assay type: cell-based; conditions: * = some reduction of growth versus control at […]; for E. coli LS883 tolC (MIC): MHII broth; for MIC: Escherichia coli, read-out: E. coli LS883 tolC (MIC), MHII broth
[4] = system: Pseudomonas aeruginosa MB5890 (CB1101, efflux-deleted); experiment: microbe, parasite or virus in culture; assay type: cell-based; conditions: * = some reduction of growth versus control at […]; for P. aeruginosa MB5890 efflux-del (MIC): MHII broth; for MIC: Pseudomonas aeruginosa, read-out: P. aeruginosa MB5890 efflux-del (MIC), MHII broth
[5] = system: Staphylococcus aureus MB6266 (MRSA COL); experiment: Nargenicin antibacterial assay (MIC), S. aureus; assay type: cell-based; conditions: * = some reduction of growth versus control at […]; for S. aureus COL (MIC): MHII broth + 50% human serum; for MIC: Staphylococcus aureus, MRSA, read-out: S. aureus COL (MIC), MHII broth + 50% human serum
[6] = system: Streptococcus pneumoniae MB6357 (CL 2883); experiment: Nargenicin antibacterial assay (MIC), S. pneumoniae; assay type: cell-based; conditions: * = some reduction of growth versus control at […]; for S. pneumoniae MB2883 (MIC): Isosensitest broth; for MIC: Streptococcus pneumoniae, read-out: S. pneumoniae MB2883 (MIC), Isosensitest broth
[7] = read-out: E. coli DnaE IC50 (converted)
[8] = read-out: S. aureus DnaE IC50 (converted)

T1 sequence (P10443 whole entry, the tested form may be a part): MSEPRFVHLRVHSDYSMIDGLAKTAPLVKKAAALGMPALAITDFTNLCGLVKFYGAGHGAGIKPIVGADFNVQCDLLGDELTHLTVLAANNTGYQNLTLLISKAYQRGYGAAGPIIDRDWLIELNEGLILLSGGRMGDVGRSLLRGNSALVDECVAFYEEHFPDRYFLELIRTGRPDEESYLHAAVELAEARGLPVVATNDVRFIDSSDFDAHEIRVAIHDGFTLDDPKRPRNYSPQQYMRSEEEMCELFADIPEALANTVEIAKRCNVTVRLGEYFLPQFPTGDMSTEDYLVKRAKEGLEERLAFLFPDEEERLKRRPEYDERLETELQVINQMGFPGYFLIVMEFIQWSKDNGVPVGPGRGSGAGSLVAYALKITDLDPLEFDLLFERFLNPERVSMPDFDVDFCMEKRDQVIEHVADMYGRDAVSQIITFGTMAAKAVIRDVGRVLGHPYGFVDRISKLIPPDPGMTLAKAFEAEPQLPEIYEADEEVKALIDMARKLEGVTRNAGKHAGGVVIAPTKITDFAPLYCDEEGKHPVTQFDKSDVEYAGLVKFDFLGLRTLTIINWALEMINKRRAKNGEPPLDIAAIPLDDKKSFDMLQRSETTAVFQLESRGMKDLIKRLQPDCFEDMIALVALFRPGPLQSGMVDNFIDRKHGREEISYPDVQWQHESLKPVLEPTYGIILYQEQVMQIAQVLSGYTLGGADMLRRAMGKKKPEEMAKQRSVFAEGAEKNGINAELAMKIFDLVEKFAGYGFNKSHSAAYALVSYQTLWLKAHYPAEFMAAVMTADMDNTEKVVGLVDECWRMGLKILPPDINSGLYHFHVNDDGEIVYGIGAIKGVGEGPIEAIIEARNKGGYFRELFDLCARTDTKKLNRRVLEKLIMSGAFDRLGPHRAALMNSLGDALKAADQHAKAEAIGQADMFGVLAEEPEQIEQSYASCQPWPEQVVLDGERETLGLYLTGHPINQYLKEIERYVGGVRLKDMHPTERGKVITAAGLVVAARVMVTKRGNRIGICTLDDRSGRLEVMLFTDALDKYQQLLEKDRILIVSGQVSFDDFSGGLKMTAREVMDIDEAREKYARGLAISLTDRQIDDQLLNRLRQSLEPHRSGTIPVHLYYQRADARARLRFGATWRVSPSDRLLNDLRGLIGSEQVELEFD

Compound | E. coli DnaE IC50 [1] | S. aureus DnaE IC50 [2] | E. coli LS883 tolC (MIC) [3] | P. aeruginosa MB5890 efflux-del (MIC) [4] | S. aureus COL (MIC) [5] | S. pneumoniae MB2883 (MIC) [6] | IC50 [1, 7] | IC50 ([2]; S. aureus DnaE IC50) | MIC [3] | MIC [4] | MIC [5] | MIC [6] | IC50 ([1]; E. coli DnaE IC50) | IC50 [2, 8]
CO[C@H]1C[C@H]2C=CC3C4[C@H](O)[C@@H](C)[C@@H](OC(=O)c5ccc[nH]5)[C@@H]3O[C@]42/C(C)=C/[C@@H](C)[C@@H]([C@@H](C)OC(=O)C(=O)NC2CC2)OC1=O [Example 117] | 11 µg/mL | 0.0007 µg/mL | ≤0.125 µg/mL | 4 µg/mL | ≤0.125 µg/mL | 128 µg/mL | – | – | – | – | – | – | – | –
COCCNC(=O)C(=O)O[C@H](C)[C@H]1OC(=O)[C@@H](OC)C[C@H]2C=CC3C4[C@H](O)[C@@H](C)[C@@H](OC(=O)c5ccc[nH]5)[C@@H]3O[C@]42/C(C)=C/[C@H]1C [Example 119] | 11 µg/mL | 0.0012 µg/mL | 0.25 µg/mL | 8 µg/mL | ≤0.125 µg/mL | >128* μg/mL | – | – | – | – | – | – | – | –
CO[C@H]1C[C@H]2C=CC3C4[C@H](O)[C@@H](C)[C@@H](OC(=O)c5ccc[nH]5)[C@@H]3O[C@]42/C(C)=C/[C@@H](C)[C@@H]([C@@H](C)OC(=O)C(=O)NCc2ccccc2CN(C)C)OC1=O [Example 141] | 1 µg/mL | <0.006 µg/mL | 0.25 µg/mL | 4 µg/mL | 0.25 µg/mL | >128* μg/mL | – | – | – | – | – | – | – | –
CO[C@H]1CC2C=C[C@H]3[C@H]4O[C@]2(/C(C)=C/[C@@H](C)[C@@H](C(C)O)OC1=O)[C@@H]3[C@H](O)[C@@H](C)[C@H]4OC(=O)c1ccc[nH]1 (stereo partly drawn) [Example 145, Nargenicin A1, reference compound] | – | – | – | – | – | – | 1.75 µM | < 0.0116 µM | 0.25 µg/mL (≈ 0.485 µM) | 4 µg/mL (≈ 7.76 µM) | 0.25 µg/mL | > 128 µg/mL | – | –
CO[C@H]1C[C@H]2C=C[C@H]3[C@H]4O[C@]2(/C(C)=C/[C@@H](C)[C@@H]([C@@H](C)O)OC1=O)[C@@H]3C(=O)[C@@H](C)[C@H]4OC(=O)c1ccc[nH]1 [Example 146, (3R,4S,7S,8aS,10aR,11R,12R,13S,14aR,14bS,E)-4-((R)-1-hydroxyethyl)-7-methoxy-1,3,13-trimethyl-6,14-dioxo-3,4,6,7,8,8a,10a,11,12,13,14,14a-dodecahydro-11,14b-epoxynaphtho[2,1-e]oxecin-12-yl 1H-pyrrole-2-carboxylate] | – | – | – | – | – | – | > 195 µM | 1.17 µM | 128 µg/mL (≈ 249 µM) | > 128 µg/mL | > 128 µg/mL | 128 µg/mL (≈ 249 µM) | – | –
CO[C@H]1C[C@H]2C=C[C@@H]3[C@H]4[C@H](O)[C@@H](C)C(n5ccnc5)[C@@H]3O[C@]42/C(C)=C/[C@@H](C)[C@@H]([C@@H](C)O)OC1=O (stereo partly drawn) [Example 149] | – | – | – | – | – | – | – | 23.3 µM | 32 µg/mL (≈ 67.7 µM) | 128 µg/mL (≈ 271 µM) | > 128 µg/mL | > 128 µg/mL | > 212 µM | –
C=CC[C@H]1[C@@H]2O[C@@]34/C(C)=C/[C@@H](C)[C@@H]([C@@H](C)O)OC(=O)[C@@H](OC)C[C@H]3C=C[C@@H]2[C@H]4C(=O)[C@@H]1C [Example 150, (3R,4S,7S,8aS,10aR,11S,12R,13R,14aR,14bS,E)-12-allyl-4-((R)-1-hydroxyethyl)-7-methoxy-1,3,13-trimethyl-3,4,8,8a,10a,11,12,13-octahydro-11,14b-epoxynaphtho[2,1-e]oxecine-6,14(7H,14aH)-dion] | – | – | – | – | – | – | – | – | > 64 µg/mL | > 64 µg/mL | > 64 µg/mL | 64 µg/mL (≈ 144 µM) | > 112 µM | 5.62 µM
CO[C@H]1C[C@H]2C=C[C@H]3[C@H]4O[C@]2(/C(C)=C/[C@@H](C)[C@@H]([C@@H](C)O)OC1=O)[C@@H]3[C@H](O)[C@@H](C)[C@@H]4N [Example 151, (3R,4S,7S,8aS,10aR,11R,12S,13S,14R,14aS,14bS,E)-12-amino-14-hydroxy-4-((R)-1-hydroxyethyl)-7-methoxy-1,3,13-trimethyl-3,4,8,8a,10a,11,12,13,14,14 a-decahydro-11,14b-epoxynaphtho [2,1-e]oxecin-6(7H)-one] | – | – | – | – | – | – | – | 4.98 µM | > 128 µg/mL | > 128 µg/mL | > 128 µg/mL | > 128 µg/mL | > 237 µM | –
CO[C@H]1C[C@H]2C=C[C@H]3[C@H]4O[C@]2(/C(C)=C/[C@@H](C)[C@@H]([C@@H](C)O)OC1=O)[C@@H]3[C@H](O)C(C)[C@@H]4NCc1cccs1.O=C(O)C(F)(F)F (stereo partly drawn) [Example 153] | – | – | – | – | – | – | – | – | > 128 µg/mL | > 128 µg/mL | > 128 µg/mL | > 128 µg/mL | > 158 µM | 47.5 µM
CO[C@H]1C[C@H]2C=C[C@H]3[C@H]4O[C@]2(/C(C)=C/[C@@H](C)[C@@H]([C@@H](C)O)OC1=O)[C@@H]3[C@H](O)C(C)[C@@H]4NCc1ccncc1.O=C(O)C(F)(F)F (stereo partly drawn) [Example 154] | – | – | – | – | – | – | – | – | > 128 µg/mL | > 128 µg/mL | > 128 µg/mL | > 128 µg/mL | > 160 µM | 112 µM
CO[C@H]1C[C@H]2C=C[C@H]3[C@H]4O[C@]2(/C(C)=C/[C@@H](C)[C@@H]([C@@H](C)O)OC1=O)[C@@H]3[C@H](O)C(C)[C@@H]4NCCN.O=C(O)C(F)(F)F (stereo partly drawn) [Example 155] | – | – | – | – | – | – | – | – | > 128 µg/mL | 128 µg/mL | > 128 µg/mL | > 128 µg/mL | > 173 µM | 2.59 µM
CO[C@H]1C[C@H]2C=C[C@H]3[C@H]4O[C@]2(/C(C)=C/[C@@H](C)[C@@H]([C@@H](C)O)OC1=O)[C@@H]3[C@H](O)C(C)[C@@H]4NCCN1CCCCC1.O=C(O)C(F)(F)F (stereo partly drawn) [Example 156] | – | – | – | – | – | – | – | – | > 128 µg/mL | > 128 µg/mL | > 128 µg/mL | > 128 µg/mL | > 155 µM | 32.5 µM
CO[C@H]1C[C@H]2C=C[C@H]3[C@H]4O[C@]2(/C(C)=C/[C@@H](C)[C@@H]([C@@H](C)O)OC1=O)[C@@H]3[C@H](O)C(C)[C@@H]4NCCN1CCCC1.O=C(O)C(F)(F)F (stereo partly drawn) [Example 157] | – | – | – | – | – | – | – | – | > 128 µg/mL | > 128 µg/mL | > 128 µg/mL | > 128 µg/mL | > 158 µM | 3.32 µM

From patent US9944654B2, “Nargenicin compounds and uses thereof as antibacterial agents” (priority 2014, dated 2018)
